According to patent publication US9187486B2 (AMGEN INC., priority 2011, dated 2015):
Where a name gives a salt, the structure may show the parent alone. Read-outs that look alike come from different tables or passages of the source.

How the values were obtained:
Pim-1 = Pim-1 (Homo sapiens (Human), UniProt P11309); experiment: Pim enzyme assay (HTRF, phosphorylation of biotinylated-BAD (S112) peptide), Pim-1; type: biochemical
From the text: (§1) Full-length human cDNAs encoding Pim-1 (MGC ID 3913552) or Pim-2 (IMAGE ID 5092935) were purchased from Invitrogen, Carlsbad, Calif. These cDNAs were used as templates in PCR reactions to produce full-length DNA clones of the PIMs. Oligonucleotide PCR primers for Pim-1 were 5′-[…]-3′ and 5′-[…]-3′. Oligonucleotide PCR primers for Pim-2 were 5′-[…]-3′ and 5′-[…]-3′. PCR products were digested with BclI and EcoRI for Pim-1 and BamHI and EcoRI for Pim-2 and ligated into a modified baculovirus transfer vector (pFastBac 1) cleaved with BamHI and EcoRI. For bacterial expression, the same cleaved PCR products encoding Pim-1 or Pim-2 were ligated into a modified E. coli expression vector pET28(a) cleaved with BamHI and EcoRI. Amino-terminal hexahistidine tags followed by a thrombin cleavage site were previously added to the vectors using standard methods of molecular biology. Recombinant baculoviruses expressing Pim-1 or Pim-2 were made using standard methods (Fastbac manual, Invitrogen, Carlsbad, Calif.). Infection of Sf9 cells was done at an m.o.i. of greater than 5 for 24-48 h. Cells were harvested by centrifugation and frozen at −80 C. For E. coli expression, cells carrying pET28-His6-Th-Pim-1 or pET28-His6-Th-Pim-2 were picked from a single colony and grown o/n in LB media. The o/n culture was used to inoculate a 2 liter flask with 500 mL media. This was grown o/n and used to inoculate 15-20 liters of Terrific Broth in a New Brunswick Scientific fermentor. The E. coli were grown at 37° C. to and OD600>1.6. The temperature was dropped to 18° C. and o/n expression was induced with 0.5 mM IPTG. Cells were harvested by centrifugation and frozen at −80° C.
(§2) The frozen cell pellets were thawed by stirring in chilled lysis buffer (0.05 M HEPES, pH 8.0, 0.25 M NaCl, 0.01 M 2-mercaptoethanol, 10% (w/v) glycerol, 0.5% (v/v) protease inhibitor cocktail (Sigma P-8340) at a ratio of 1 L/200 g cells until homogeneous. The thawed suspension was applied to a microfluidizer at 10,000 PSI to disrupt the cells and the whole lysates were clarified by centrifugation at 50,000×g for 90 min, 4° C. Imidazole was added to the clarified lysate to a final concentration of 2.5 mM and the lysate was mixed with 10 mL of Talon resin (Clontech) and the slurry rocked gently overnight at 4° C. The slurry was centrifuged at 1,000×g for 5 min, the supernatant decanted, and the resin suspended in 40 mL of lysis wash buffer (lysis buffer at 0.75 M NaCl). This step was repeated 3× and the resin was transferred to a 2.5 cm glass column. Ten column volumes of wash buffer (0.05 M HEPES, pH 8.0, 0.1 M NaCl, 0.01 M 2-mercaptoethanol, 10% (w/v) glycerol) were applied to the resin followed by 10 column volumes of elution buffer (0.05 M HEPES, pH 8.0, 0.25 M NaCl, 0.01 M 2-mercaptoethanol, 10% (w/v) glycerol, 0.1 M imidazole). Fractions were analyzed by SDS-PAGE and those containing the protein of interest were pooled and concentrated. The concentrated protein was applied to an Amersham Superdex 75 (XK 26/60) column equilibrated in 0.025 M Tris-HCl, pH 7.5, 0.1 M NaCl, 0.01 M 2-mercaptoethanol, 10% (w/v) glycerol. […] Fractions containing the monomeric protein of interest were pooled, concentrated to ˜2 mg/mL, and stored at −80° C.
(§3) The phosphorylation of biotinylated-BAD (S112) peptide by full length recombinant Pim-1, Pim-2, or Pim-3 protein was detected with streptavidin:Allophycocyanin (APC) conjugate and a europium (Eu) labeled antibody directed against phosphorylated-BAD (S112). Excitation of Eu by a high energy laser light (337 nm) leads to a transfer of energy to the APC molecule, and results in an emission at 665 nm. The fluorescence is directly proportional to the amount of phosphorylated BAD peptide present in the reaction.

Pim-2 = Pim-2 (Homo sapiens (Human), UniProt Q9P1W9); experiment: Pim enzyme assay (HTRF, phosphorylation of biotinylated-BAD (S112) peptide), Pim-2; type: biochemical
Sequence of Pim-2 (Q9P1W9 whole entry): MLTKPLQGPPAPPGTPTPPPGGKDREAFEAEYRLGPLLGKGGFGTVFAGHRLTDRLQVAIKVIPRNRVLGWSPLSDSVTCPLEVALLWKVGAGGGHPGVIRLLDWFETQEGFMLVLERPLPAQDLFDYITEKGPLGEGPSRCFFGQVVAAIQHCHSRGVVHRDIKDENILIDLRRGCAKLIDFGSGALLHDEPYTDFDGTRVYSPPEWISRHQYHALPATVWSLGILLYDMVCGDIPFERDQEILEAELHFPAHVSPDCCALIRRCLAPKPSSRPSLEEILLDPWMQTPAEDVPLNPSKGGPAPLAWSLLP
From the text: as §1, §2, §3

[1] = full length recombinant Pim-1, biotinylated-BAD (S112) peptide, HTRF, read-out: Pim_1_IC50
[2] = full length recombinant Pim-2, biotinylated-BAD (S112) peptide, HTRF, read-out: Pim2_IC50
[3] = full length recombinant Pim-1, biotinylated-BAD (S112) peptide, HTRF, 96-well, read-out: Pim-1 IC50 IP
[4] = full length recombinant Pim-2, biotinylated-BAD (S112) peptide, HTRF, 96-well, read-out: Pim-2 IC50 IP

Sequence of Pim-1 (P11309 whole entry): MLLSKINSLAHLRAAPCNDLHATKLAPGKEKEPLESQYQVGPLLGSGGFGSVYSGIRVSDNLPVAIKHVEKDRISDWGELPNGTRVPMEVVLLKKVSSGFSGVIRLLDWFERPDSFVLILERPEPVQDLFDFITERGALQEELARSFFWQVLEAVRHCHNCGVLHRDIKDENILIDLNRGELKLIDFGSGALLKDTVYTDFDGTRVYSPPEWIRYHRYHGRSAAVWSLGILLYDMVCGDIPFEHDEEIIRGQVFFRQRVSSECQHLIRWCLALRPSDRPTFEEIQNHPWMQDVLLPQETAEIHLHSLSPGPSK

| Compound | IC50 (Pim-1; [1]) [nM] | IC50 (Pim-2; [2]) [nM] | IC50 (Pim-1; [3]) [nM] | further results |
| --- | --- | --- | --- | --- |
| N[C@H]1CCCN(c2ncncc2Nc2ncc3ccc(-c4ccccc4F)nn23)C1 [Example 14, (S)-N-(4-(3-aminopiperidin-1-yl)pyrimidin-5-yl)-2-(2-fluorophenyl)imidazo[1,5-b]pyridazin-7-amine] | 35 | 160 | – | – |
| Clc1ccccc1-c1ccc2cnc(Nc3cnccc3O[C@@H]3CCCNC3)n2n1 [Example 10, 2-(2-chlorophenyl)-N-(4-((3R)-3-piperidinyloxy)-3-pyridinyl)imidazo[1,5-b]pyridazin-7-amine bis(2,2,2-trifluoroacetate)] | 409 | > 1000 | – | – |
| c1cc(N2CCNCC2)c(Nc2ncc3ccc(-c4nccs4)nn23)cn1 [Example 3, N-(4-(1-piperazinyl)-3-pyridinyl)-2-(1,3-thiazol-2-yl)imidazo[1,5-b]pyridazin-7-amine] | 54 | 154 | – | – |
| N[C@H]1CCCN(c2sncc2Nc2ncc3ccc(-c4c(F)cccc4F)nn23)C1 [Example 31, N-(5-((3S)-3-amino-1-piperidinyl)-4-isothiazolyl)-2-(2,6-difluorophenyl)imidazo[1,5-b]pyridazin-7-amine dihydrochloride] | – | 136 | – | IC50 (Pim-1; read-out: Pim_1_IC50): 50 nM |
| Cc1oncc1-c1ccncc1Nc1ncc2ccc(-c3c(F)cccc3F)nn12 [Example 102, 2-(2,6-Difluorophenyl)-N-(4-(5-methylisoxazol-4-yl)pyridin-3-yl)imidazo[1,5-b]pyridazin-7-amine bis(2,2,2-trifluoroacetate)] | – | – | – | IC50 (Pim-2; read-out: Pim-2 IC50 IP): > 1000 nM |
| N[C@H]1CCCN(c2ccncc2Nc2ncc3ccc(-c4ncccc4F)nn23)C1 [Example 40, N-(4-((3S)-3-amino-1-piperidinyl)-3-pyridinyl)-2-(3-fluoro-2-pyridinyl)imidazo [1,5-b]pyridazin-7-amine] | – | – | – | IC50 (Pim-2; [4]): 1.1 nM |
| N[C@H]1CCN(c2ccncc2Nc2ncc3ccc(-c4c(F)cccc4F)nn23)C1 [Example 13, N-(4-((3S)-3-amino-1-pyrrolidinyl)-3-pyridinyl)-2-(2,6-difluorophenyl)imidazo[1,5-b]pyridazin-7-amine bis(2,2,2-trifluoroacetate)] | 568 | > 1000 | – | – |
| N[C@@H]1CCCN(c2ccncc2Nc2ncc3ccc(-c4c(F)cccc4F)nn23)C1 [Example 69, (R)-N-(4-(3-aminopiperidin-1-yl)pyridin-3-yl)-2-(2,6-difluorophenyl)imidazo[1,5-b]pyridazin-7-amine] | – | – | 7.6 | IC50 (Pim-2; [4]): 35.2 nM |
| Clc1ccccc1-c1ccc2cnc(Nc3cnccc3N3CCNCC3)n2n1 [Example 5, 2-(2-chlorophenyl)-N-(4-(1-piperazinyl)-3-pyridinyl)imidazo[1,5-b]pyridazin-7-amine] | 107 | 640 | – | – |
| O[C@@H]1CCCN(c2ccncc2Nc2ncc3ccc(-c4ccccc4Cl)nn23)C1 [Example 17, (3R)-1-(3-((2-(2-chlorophenyl)imidazo[1,5-b]pyridazin-7-yl)amino)-4-pyridinyl)-3-piperidinol] | 192 | > 1000 | – | – |

Now from value to compound, other results behind:

| IC50 (Pim-1; [1]) [nM] | IC50 (Pim-2; [2]) [nM] | IC50 (Pim-1; [3]) [nM] | Compound | further results |
| --- | --- | --- | --- | --- |
| – | – | 33.8 | CC(C)CN(C)c1ccncc1Nc1ncc2ccc(-c3c(F)cccc3F)nn12 [Example 81, N3-(2-(2,6-Difluorophenyl)imidazo[1,5-b]pyridazin-7-yl)-N4-isobutyl-N4-methylpyridine-3,4-diamine] | – |
| 38 | 281 | – | O=c1ccc(-c2ccncc2Nc2ncc3ccc(-c4c(F)cccc4F)nn23)c[nH]1 [Example 28, 3′-((2-(2,6-difluorophenyl)imidazo[1,5-b]pyridazin-7-yl)amino)-3,4′-bipyridin-6(1 H)-one] | – |
| 25 | 99 | – | N[C@H]1CCCN(c2ccncc2Nc2ncc3ccc(Cl)nn23)C1 [Example 24, N-(4-((3S)-3-amino-1-piperidinyl)-3-pyridinyl)-2-chloroimidazo[1,5-b]pyridazin-7-amine] | – |
| 3 | 30 | – | O[C@H]1CCCN(c2ccncc2Nc2ncc3ccc(-c4c(F)cccc4F)nn23)C1 [Example 19, (3S)-1-(3-((2-(2,6-difluorophenyl)imidazo[1,5-b]pyridazin-7-yl)amino)-4-pyridinyl)-3-piperidinol] | – |
| – | – | > 1000 | N[C@H]1CCCN(c2cnccc2Nc2ncc3ccc(-c4c(F)cccc4F)nn23)C1 [Example 80, (S)-N-(3-(3-aminopiperidin-1-yl)pyridin-4-yl)-2-(2,6-difluorophenyl)imidazo[1,5-b]pyridazin-7-amine tetra(2,2,2-trifluoroacetate)] | IC50 (Pim-2; [4]): > 1000 nM |
| – | – | 11.8 | C[C@H]1CN(c2ccncc2Nc2ncc3ccc(-c4c(F)cccc4F)nn23)CCN1 [Example 58, (S)-2-(2,6-difluorophenyl)-N-(4-(3-methylpiperazin-1-yl)pyridin-3-yl)imidazo[1,5-b]pyridazin-7-amine bis(2,2,2-trifluoroacetate)] | IC50 (Pim-2; [4]): 65.9 nM |
| – | – | 38.3 | N[C@H]1CCCN(c2ccncc2Nc2nnc3cccnn23)C1 [Example 68, 2,2,2-trifluoroacetate] | IC50 (Pim-2; [4]): 73.7 nM |
| 534 | > 1000 | – | CN(C)c1ccncc1Nc1ncc2ccc(-c3c(F)cccc3F)nn12 [Example 26, N^3-(2-(2,6-difluorophenyl)imidazo[1,5-b]pyridazin-7-yl)-N^4,N^4-dimethyl-3,4-pyridinediamine] | – |
| – | – | 30.5 | N[C@@H]1C=C(c2ccncc2Nc2ncc3ccc(-c4c(F)cccc4F)nn23)CCC1 (single isomer, unassigned) [Example 84, N-(4-(3-aminocyclohex-1-en-1-yl)pyridin-3-yl)-2-(2,6-difluorophenyl)imidazo[1,5-b]pyridazin-7-amine tris(2,2,2-trifluoroacetate)] | – |
| – | – | 66.9 | O[C@@H]1CCN(c2ccncc2Nc2ncc3ccc(-c4c(F)cccc4F)nn23)C[C@H]1O (single isomer, unassigned) [Example 34, 1-(3-((2-(2,6-difluorophenyl)imidazo[1,5-b]pyridazin-7-yl)amino)-4-pyridinyl)-3,4-trans-piperidinediol] | – |
| 99 | > 1000 | – | O[C@@H]1CCCN(c2ccncc2Nc2ncc3ccc(-c4nccs4)nn23)C1 [Example 18, (3R)-1-(3-((2-(1,3-thiazol-2-yl)imidazo[1,5-b]pyridazin-7-yl)amino)-4-pyridinyl)-3-piperidinol] | – |
| – | – | 29.6 | Fc1cccc(F)c1-c1ccc2cnc(Nc3cnccc3N3CCCCC3)n2n1 [Example 70, 2-(2,6-difluorophenyl)-N-(4-(piperidin-1-yl)pyridin-3-yl)imidazo[1,5-b]pyridazin-7-amine bis(2,2,2-trifluoroacetate)] | – |
| – | – | 38.5 | Fc1cccnc1-c1ccc2cnc(Nc3cnccc3N3CCCCC3)n2n1 [Example 71, 2-(3-Fluoropyridin-2-yl)-N-(4-(piperidin-1-yl)pyridin-3-yl)imidazo[1,5-b]pyridazin-7-amine bis(2,2,2-trifluoroacetate)] | – |
